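Growth conditions: 96-well plates. Treatment: test compound, 48 hours, 5 concentrations. Analysis: linear interpolation between bracketing concentrations; unreached endpoints set to highest concentration. The concentration for full growth arrest is given as TGI.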
Key:
Test in all cases: NCI tumour cell line growth inhibition, 48 h
786-0 renal = test system: 786-0 renal
A498 renal = test system: A498 renal
A549 NSCLC = test system: A549 NSCLC
ACHN renal = test system: ACHN renal
CAKI-1 renal = test system: CAKI-1 renal
CCRF-CEM leukemia = test system: CCRF-CEM leukemia
COLO 205 colon = test system: COLO 205 colon
DLD-1 colon = test system: DLD-1 colon
DMS 273 small cell lung = test system: DMS 273 small cell lung
EKVX NSCLC = test system: EKVX NSCLC
HCC-2998 colon = test system: HCC-2998 colon
HCT-116 colon = test system: HCT-116 colon
HCT-15 colon = test system: HCT-15 colon
HL-60(TB) leukemia = test system: HL-60(TB) leukemia
HOP-62 NSCLC = test system: HOP-62 NSCLC
HOP-92 NSCLC = test system: HOP-92 NSCLC
HT29 colon = test system: HT29 colon
IGROV1 ovarian = test system: IGROV1 ovarian
K-562 leukemia = test system: K-562 leukemia
KM12 colon = test system: KM12 colon
KM20L2 colon = test system: KM20L2 colon
LOX IMVI melanoma = test system: LOX IMVI melanoma
LXFL 529 NSCLC = test system: LXFL 529 NSCLC
M14 melanoma = test system: M14 melanoma
M19-MEL melanoma = test system: M19-MEL melanoma
MALME-3M melanoma = test system: MALME-3M melanoma
MOLT-4 leukemia = test system: MOLT-4 leukemia
NCI-H226 lung = test system: NCI-H226 lung
NCI-H23 lung = test system: NCI-H23 lung
NCI-H460 lung = test system: NCI-H460 lung
NCI-H522 lung = test system: NCI-H522 lung
OVCAR-3 ovarian = test system: OVCAR-3 ovarian
OVCAR-4 ovarian = test system: OVCAR-4 ovarian
OVCAR-5 ovarian = test system: OVCAR-5 ovarian
OVCAR-8 ovarian = test system: OVCAR-8 ovarian
RPMI-8226 leukemia = test system: RPMI-8226 leukemia
RXF 393 renal = test system: RXF 393 renal
RXF-631 renal = test system: RXF-631 renal
SF-295 CNS = test system: SF-295 CNS
SF-539 CNS = test system: SF-539 CNS
SK-MEL-2 melanoma = test system: SK-MEL-2 melanoma
SK-MEL-28 melanoma = test system: SK-MEL-28 melanoma
SK-OV-3 ovarian = test system: SK-OV-3 ovarian
SN12C renal = test system: SN12C renal
SNB-19 CNS = test system: SNB-19 CNS
SNB-75 CNS = test system: SNB-75 CNS
SNB-78 CNS = test system: SNB-78 CNS
SR leukemia = test system: SR leukemia
SW-620 colon = test system: SW-620 colon
TK-10 renal = test system: TK-10 renal
U251 CNS = test system: U251 CNS
UACC-257 melanoma = test system: UACC-257 melanoma
UACC-62 melanoma = test system: UACC-62 melanoma
UO-31 renal = test system: UO-31 renal
DMS 114 small cell lung = test system: DMS 114 small cell lung
HOP-18 NSCLC = test system: HOP-18 NSCLC
SF-268 CNS = test system: SF-268 CNS
SK-MEL-5 melanoma = test system: SK-MEL-5 melanoma
XF 498 CNS = test system: XF 498 CNS

C/C=C(\C)C(=O)N1c2ccccc2CC1c1c(C)[nH]c2ccccc12 (configuration not stated)
TGI (786-0 renal): > 100 µM | TGI (A498 renal): > 100 µM | TGI (A549 NSCLC): > 100 µM | TGI (ACHN renal): > 100 µM | TGI (CAKI-1 renal): > 100 µM | TGI (CCRF-CEM leukemia): > 100 µM | TGI (COLO 205 colon): 74.5 µM | TGI (DLD-1 colon): > 100 µM | TGI (DMS 273 small cell lung): > 100 µM | TGI (EKVX NSCLC): > 100 µM | TGI (HCC-2998 colon): > 100 µM | TGI (HCT-116 colon): > 100 µM | TGI (HCT-15 colon): > 100 µM | TGI (HL-60(TB) leukemia): > 100 µM | TGI (HOP-62 NSCLC): > 100 µM | TGI (HOP-92 NSCLC): 99.4 µM | TGI (HT29 colon): > 100 µM | TGI (IGROV1 ovarian): > 100 µM | TGI (K-562 leukemia): > 100 µM | TGI (KM12 colon): > 100 µM | TGI (KM20L2 colon): > 100 µM | TGI (LOX IMVI melanoma): > 100 µM | TGI (LXFL 529 NSCLC): > 100 µM | TGI (M14 melanoma): > 100 µM | TGI (M19-MEL melanoma): > 100 µM | TGI (MALME-3M melanoma): > 100 µM | TGI (MOLT-4 leukemia): > 100 µM | TGI (NCI-H226 lung): > 100 µM | TGI (NCI-H23 lung): > 100 µM | TGI (NCI-H460 lung): > 100 µM | TGI (NCI-H522 lung): > 100 µM | TGI (OVCAR-3 ovarian): > 100 µM | TGI (OVCAR-4 ovarian): > 100 µM | TGI (OVCAR-5 ovarian): > 100 µM | TGI (OVCAR-8 ovarian): > 100 µM | TGI (RPMI-8226 leukemia): > 100 µM | TGI (RXF 393 renal): > 100 µM | TGI (RXF-631 renal): > 100 µM | TGI (SF-295 CNS): > 100 µM | TGI (SF-539 CNS): > 100 µM | TGI (SK-MEL-2 melanoma): 69.6 µM | TGI (SK-MEL-28 melanoma): > 100 µM | TGI (SK-OV-3 ovarian): > 100 µM | TGI (SN12C renal): > 100 µM | TGI (SNB-19 CNS): > 100 µM | TGI (SNB-75 CNS): > 100 µM | TGI (SNB-78 CNS): > 100 µM | TGI (SR leukemia): > 100 µM | TGI (SW-620 colon): > 100 µM | TGI (TK-10 renal): > 100 µM | TGI (U251 CNS): > 100 µM | TGI (UACC-257 melanoma): > 100 µM | TGI (UACC-62 melanoma): > 100 µM | TGI (UO-31 renal): > 100 µM

CCOC(=O)C1=C(C)N(C2OC(COC(C)=O)C(OC(C)=O)C(OC(C)=O)C2OC(C)=O)C(=O)NC1c1ccccc1 (configuration not stated)
TGI (A498 renal): > 100 µM | TGI (A549 NSCLC): > 100 µM | TGI (ACHN renal): > 100 µM | TGI (CAKI-1 renal): > 100 µM | TGI (CCRF-CEM leukemia): > 100 µM | TGI (COLO 205 colon): > 100 µM | TGI (DLD-1 colon): > 100 µM | TGI (DMS 114 small cell lung): > 100 µM | TGI (EKVX NSCLC): > 100 µM | TGI (HCC-2998 colon): > 100 µM | TGI (HCT-116 colon): > 100 µM | TGI (HCT-15 colon): > 100 µM | TGI (HL-60(TB) leukemia): > 100 µM | TGI (HOP-18 NSCLC): > 100 µM | TGI (HOP-62 NSCLC): > 100 µM | TGI (HT29 colon): > 100 µM | TGI (IGROV1 ovarian): > 100 µM | TGI (K-562 leukemia): > 100 µM | TGI (KM12 colon): > 100 µM | TGI (KM20L2 colon): > 100 µM | TGI (LOX IMVI melanoma): > 100 µM | TGI (LXFL 529 NSCLC): > 100 µM | TGI (M14 melanoma): > 100 µM | TGI (M19-MEL melanoma): > 100 µM | TGI (MALME-3M melanoma): > 100 µM | TGI (MOLT-4 leukemia): > 100 µM | TGI (NCI-H226 lung): > 100 µM | TGI (NCI-H23 lung): > 100 µM | TGI (NCI-H460 lung): > 100 µM | TGI (NCI-H522 lung): 63.4 µM | TGI (OVCAR-3 ovarian): > 100 µM | TGI (OVCAR-4 ovarian): > 100 µM | TGI (OVCAR-5 ovarian): > 100 µM | TGI (OVCAR-8 ovarian): > 100 µM | TGI (RPMI-8226 leukemia): > 100 µM | TGI (RXF-631 renal): > 100 µM | TGI (SF-268 CNS): > 100 µM | TGI (SF-295 CNS): > 100 µM | TGI (SF-539 CNS): > 100 µM | TGI (SK-MEL-2 melanoma): > 100 µM | TGI (SK-MEL-28 melanoma): > 100 µM | TGI (SK-MEL-5 melanoma): > 100 µM | TGI (SK-OV-3 ovarian): > 100 µM | TGI (SN12C renal): > 100 µM | TGI (SNB-19 CNS): > 100 µM | TGI (SNB-75 CNS): > 100 µM | TGI (SNB-78 CNS): > 100 µM | TGI (SR leukemia): > 100 µM | TGI (SW-620 colon): > 100 µM | TGI (U251 CNS): > 100 µM | TGI (UACC-257 melanoma): > 100 µM | TGI (UACC-62 melanoma): > 100 µM | TGI (UO-31 renal): > 100 µM

COC(=O)C1=C(O)c2cc3c(cc2[C@H](c2cc(OC)c(OC)c(OC)c2)C1)OCO3
TGI (786-0 renal): > 100 µM | TGI (A498 renal): 61.7 µM | TGI (A549 NSCLC): > 100 µM | TGI (ACHN renal): > 100 µM | TGI (CAKI-1 renal): > 100 µM | TGI (CCRF-CEM leukemia): > 100 µM | TGI (COLO 205 colon): 34.7 µM | TGI (DLD-1 colon): > 100 µM | TGI (DMS 114 small cell lung): > 100 µM | TGI (DMS 273 small cell lung): > 100 µM | TGI (HCT-116 colon): > 100 µM | TGI (HCT-15 colon): > 100 µM | TGI (HL-60(TB) leukemia): 67.6 µM | TGI (HOP-18 NSCLC): > 100 µM | TGI (HOP-62 NSCLC): > 100 µM | TGI (HOP-92 NSCLC): > 100 µM | TGI (HT29 colon): > 100 µM | TGI (IGROV1 ovarian): 89.4 µM | TGI (K-562 leukemia): > 100 µM | TGI (KM12 colon): 54.3 µM | TGI (KM20L2 colon): > 100 µM | TGI (LOX IMVI melanoma): > 100 µM | TGI (LXFL 529 NSCLC): > 100 µM | TGI (M14 melanoma): > 100 µM | TGI (M19-MEL melanoma): 10.1 µM | TGI (MALME-3M melanoma): > 100 µM | TGI (MOLT-4 leukemia): 89.6 µM | TGI (NCI-H226 lung): > 100 µM | TGI (NCI-H23 lung): > 100 µM | TGI (NCI-H460 lung): > 100 µM | TGI (OVCAR-3 ovarian): 55.7 µM | TGI (OVCAR-4 ovarian): > 100 µM | TGI (OVCAR-5 ovarian): > 100 µM | TGI (OVCAR-8 ovarian): > 100 µM | TGI (RPMI-8226 leukemia): > 100 µM | TGI (RXF 393 renal): > 100 µM | TGI (RXF-631 renal): > 100 µM | TGI (SF-268 CNS): > 100 µM | TGI (SF-295 CNS): > 100 µM | TGI (SF-539 CNS): > 100 µM | TGI (SK-MEL-28 melanoma): > 100 µM | TGI (SK-MEL-5 melanoma): 61.1 µM | TGI (SK-OV-3 ovarian): > 100 µM | TGI (SN12C renal): > 100 µM | TGI (SNB-19 CNS): > 100 µM | TGI (SNB-75 CNS): > 100 µM | TGI (SNB-78 CNS): > 100 µM | TGI (SR leukemia): > 100 µM | TGI (SW-620 colon): > 100 µM | TGI (TK-10 renal): > 100 µM | TGI (U251 CNS): > 100 µM | TGI (UACC-257 melanoma): 95.1 µM | TGI (UACC-62 melanoma): 27.9 µM | TGI (UO-31 renal): 36.3 µM | TGI (XF 498 CNS): > 100 µM

Reference: PubChem BioAssay (NCI)
